Results as given in patent US6352980B1, “Estrenes for inducting hypothalamic effects” (Pherin Pharmaceuticals, Inc., priority 1991, dated 2002).

Columns and labels:
[1] = tested on: olfactory epithelium (OE); assay: Local electrical potential of the olfactory epithelium on localized gaseous stimulation (Example 52); type: in vivo, human; details: both males and females; compared to clove; FIG. 2C
Description: (§1) A non-invasive method has been employed to record local electrical potentials from the human vomeronasal organ (VNO) and from the olfactory epithelium (OE). Localized gaseous stimulation was applied to both nasal structures at different instances using specially designed catheter/electrodes connected to a multichannel drug delivery system.
(§2) The study was performed on ten clinically normal (screened) volunteers—2 males and 8 females, ranging in age from 18 to 85 years. The studies were conducted without general or local anesthetics.
(§3) The catheter/electrodes were designed to deliver a localized stimulus and simultaneously record the response. In the case of VNO recording, the right nasal fosa of the subject was explored using a nasoscope (nasal specula) and the vomeronasal opening was localized close to the intersection of the anterior edge of the vomer and the nasal floor. The catheter/electrode was gently driven through the VNO-opening and the electrode tip placed in the organ's lumen at 1 to 3 mm from the opening. The nasoscope was then removed. In the case of the OE, recording the procedure was similar except the positioning of the catheter/electrode was gently placed deep in the lateral part of the medial nasal duct, reaching the olfactory mucosa.
Localized gaseous stimulation was done through the catheter/electrode. […]
(§4) The response is measured in millivolt-seconds (mV×s).

[2] = tested on: human vomeronasal organ (VNO); assay: Local electrical potential of the VNO on localized gaseous stimulation (Example 52); type: in vivo
Description: as §1, §2, §3
Localized gaseous stimulation was done through the catheter/electrode. A constant stream of clean, nonodorous, humidified air at room temperature was continuously passed through a channel of the stimulating system. The stimulating ligand substances were diluted in propylene glycol, mixed with the humidified air, and puffed for from 1 to 2 seconds through the catheter/electrode. It is estimated that this administration provides about 25 pg of steroid-ligand to the nasal cavity.
as §4

Q: C[C@]12CC[C@@H]3c4ccc(O)cc4CC[C@H]3[C@@H]1C[C@@H](O)[C@@H]2O [1,3,5(10)-Estratrien-3,16α,17β-triol, reference compound] was tested. Which OE response [1] did it give?
A: Its OE response is “low compared to a strong odorant such as clove”.

Q: What about the “VNO response, males versus females (sexual dimorphism)” value ([2]; FIG. 2B) of the same compound?
A: The value was “approximately four times as strong in males as it is in females”.

Q: What about the VNO response ([2]; male subjects, about 25 pg to the nasal cavity, response measured in mV×s, FIG. 2A) of the same compound?
A: Its VNO response is “strong VNO response”.
